Source: patent US20130029981A1, “COMPOUNDS, COMPOSITIONS, AND METHODS FOR CONTROLLING BIOFILMS” (Katholieke Universiteit Leuven, priority 2009, published 2013)
Where two headings read alike, the source gives them in different places.

Key:
[1] = system: Pseudomonas aeruginosa PA14; experiment: Static peg assay for prevention of biofilm formation (Calgary device, crystal violet); format: cell-based
Experimental: (§1) Evaluation of the biofilm inhibitory activity of some substituted 2-amino-1H-imidazoles of the invention was carried out by growing up biofilms of S. Typhimurium ATCC14028 or SL1344 or Pseudomonas aeruginosa PA14 in the presence of different concentrations (1/2 dilution series) of biofilm inhibitors, by using the Calgary biofilm device. After an incubation period of 24 hours at 25° C. or 37° C. or 48 hours at 16° C. the biofilms were visualized by crystal violet staining. In the next step the stain was extracted from the biofilm with 30% acetic acid. The absorbance of the resolubilized stain at 570 nm is a measure of the amount of biofilm formed.
The device used for Pseudomonas aeruginosa biofilm formation is the same platform carrying polystyrene pegs as described above for Salmonella Typhimurium.
Two-fold serial dilutions of the compounds in 100 μl liquid broth per well were prepared in the microtiter plate. Subsequently, an overnight culture of P. aeruginosa PA14 (grown up in TSB medium) was diluted 1:100 into liquid broth and 100 μl was added to each well of the microtiter plates, resulting in a total amount of 200 μl medium per well. The pegged lid was placed on the microtiter plate and the plate was incubated for 24 hours at 25° C., 30° C. or 37° C. without shaking. During this incubation period biofilms were formed on the surface of the pegs. The liquid broth used for the tests at 25° C. was TSB 1/20. The tests at 37° C. were performed in CFA and/or LBNS broth. During incubation at 30° C. and 37° C. the plates were placed in a humidity controlled container to prevent evaporation of the growth medium. Quantification of biofilm formation was performed similarly as described previously for the S. Typhimurium biofilm assays.
as §1, with “imidazo[1,2-a]pyrimidinium bromide salts” for “2-amino-1H-imidazoles”
as §1, with “substituted imidazo[1,2-a]-pyrimidinium bromide and perchlorate salts produced according to examples 3 and 5” for “substituted 2-amino-1H-imidazoles of the invention”, “C.” for “C. or 37° C. or 48 hours at 16° C.”, “nm was taken as” for “nm is”

S. Typhimurium ATCC14028 = experiment: as above; format: cell-based, Salmonella Typhimurium
How it was run: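 Calgary 96-peg device, ca. 10^6 cells of ATCC14028 per well in TSB 1/20 for 24 h at 25° C (or 48 h at 16° C, medium and compound renewed at 24 h), or in CFA broth for 24 h at 37° C, static, with two-fold compound dilutions. Crystal violet stain, acetic acid extraction, OD570. IC50 from 2–3 independent experiments.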

[2] = 25° C., 24 hours, Table 15, read-out: (2) IC50 (biofilm inhibition)
[3] = 25° C., Table 17, read-out: P. aeruginosa IC50 (biofilm formation)
[4] = 25° C., 24 hours, Table 15, read-out: (1) IC50 (biofilm inhibition)
[5] = 25° C., Table 17, read-out: S. Typhimurium IC50 (biofilm formation)
[6] = 25° C., Table 18, read-out: P. aeruginosa IC50 (biofilm formation)
[7] = 25° C., Table 18, read-out: S. Typhimurium IC50 (biofilm formation)
[8] = P. aeruginosa PA14, 25° C., read-out: P. aeruginosa IC50 (biofilm formation)
[9] = S. Typhimurium ATCC 14028, 25° C., read-out: S. Typhimurium IC50 (biofilm formation)

| SMILES | IC50 [1, 6] | IC50 (S. Typhimurium ATCC14028; [7]) | IC50 [1, 8] | IC50 (S. Typhimurium ATCC14028; [9]) | further results |
| --- | --- | --- | --- | --- | --- |
| CCCCCCCCN1c2nccc[n+]2CC1(O)c1ccc(-c2ccc([N+](=O)[O-])cc2)cc1 (stereo not shown) [Compound 53] | – | – | – | – | IC50 [1, 2]: 119 µM; IC50 [1, 3]: 215 µM; IC50 (S. Typhimurium ATCC14028; [4]): 31 µM; IC50 (S. Typhimurium ATCC14028; [5]): 31 µM |
| CCCCCCCCN1c2nccc[n+]2CC1(O)c1ccc(S(C)(=O)=O)cc1 (stereo not shown) [Compound 54] | – | – | – | – | IC50 [1, 2]: 11.5 µM; IC50 [1, 3]: 99.9 µM; IC50 (S. Typhimurium ATCC14028; [4]): 60.3 µM; IC50 (S. Typhimurium ATCC14028; [5]): 60.3 µM |
| CCCCCCCCN1c2nccc[n+]2CC1(O)c1ccc(-c2ccc(-c3ccccc3)cc2)cc1 (stereo not shown) [Compound 55] | – | – | – | – | IC50 [1, 2]: 26.8 µM; IC50 [1, 3]: 336 µM; IC50 (S. Typhimurium ATCC14028; [4]): ~52.8 µM; IC50 (S. Typhimurium ATCC14028; [5]): ~52.8 µM |
| CCCCCCCCN1c2nccc[n+]2CC1(O)c1cccc(Br)c1 (stereo not shown) [Compound 56] | – | – | – | – | IC50 [1, 2]: ~13.2 µM; IC50 [1, 3]: 29 µM; IC50 (S. Typhimurium ATCC14028; [4]): 7.13 µM; IC50 (S. Typhimurium ATCC14028; [5]): 7.1 µM |
| OC1(c2ccccc2)C[n+]2cccnc2N1C1CCC1 (stereo not shown) [Compound 57] | > 400 µM | 493 µM | – | – | – |
| OC1(c2ccccc2)C[n+]2cccnc2N1C1CCCCC1 (stereo not shown) [Compound 58] | 87 µM | 139 µM | – | – | – |
| OC1(c2ccccc2)C[n+]2cccnc2N1C1CCCCCC1 (stereo not shown) [Compound 59] | 250 µM | 84.2 µM | – | – | IC50 [1, 2]: 5.81 µM; IC50 (S. Typhimurium ATCC14028; [4]): 84.2 µM |
| OC1(c2ccccc2)C[n+]2cccnc2N1C1CCCCCCC1 (stereo not shown) [Compound 60] | 176 µM | 58.4 µM | – | – | IC50 [1, 2]: 4.63 µM; IC50 (S. Typhimurium ATCC14028; [4]): 58.4 µM |
| OC1(c2ccc(Cl)cc2)C[n+]2cccnc2N1C1CCC1 (stereo not shown) [Compound 62] | 372 µM | 121 µM | – | – | – |
| OC1(c2ccc(Cl)cc2)C[n+]2cccnc2N1C1CCCC1 (stereo not shown) [Compound 63] | 163 µM | 41.8 µM | – | – | – |
| OC1(c2ccc(Cl)cc2)C[n+]2cccnc2N1C1CCCCCC1 (stereo not shown) [Compound 65] | 76.2 µM | 27.9 µM | – | – | IC50 [1, 2]: 63.8 µM; IC50 (S. Typhimurium ATCC14028; [4]): 27.9 µM |
| OC1(c2ccc(Cl)cc2)C[n+]2cccnc2N1C1CCCCCCC1 (stereo not shown) [Compound 66] | 22.7 µM | 12.6 µM | – | – | IC50 [1, 2]: 15.6 µM; IC50 (S. Typhimurium ATCC14028; [4]): 12.6 µM |
| OC1(c2ccc(Cl)cc2)C[n+]2cccnc2N1C1CCCCCCCCCCC1 (stereo not shown) [Compound 67] | 6.8 µM | 5.6 µM | – | – | – |
| Nc1nc(-c2ccccc2)c[nH]1 [Compound 81] | – | – | 72.6 µM | 130 µM | – |
| CC(C)Nc1nc(-c2ccccc2)c[nH]1 [Compound 82] | – | – | 261 µM | > 800 µM | – |
| CCCCNc1nc(-c2ccccc2)c[nH]1 [Compound 83] | – | – | 31.8 µM | 25.3 µM | – |
| CC(C)CNc1nc(-c2ccccc2)c[nH]1 [Compound 84] | – | – | 1.2 µM | 4.9 µM | – |
| Nc1nc(-c2ccc(Cl)cc2)c[nH]1 [Compound 85] | – | – | 3.5 µM | 16 µM | – |
| CC(C)CNc1nc(-c2ccc(Cl)cc2)c[nH]1 [Compound 86] | – | – | 0.9 µM | 2 µM | – |
| CCCCCNc1nc(-c2ccc(Cl)cc2)c[nH]1 [Compound 87] | – | – | ~6.35 µM | > 400 µM | – |
| CCCCCCCCNc1nc(-c2ccc(Cl)cc2)c[nH]1 [Compound 88] | – | – | ~1.6 µM | > 400 µM | – |
| CNc1nc(-c2ccc([N+](=O)[O-])cc2)c[nH]1 [Compound 91] | – | – | 56.1 µM | 170 µM | – |
| CCNc1ncc(-c2ccc([N+](=O)[O-])cc2)[nH]1 [Compound 92] | – | – | 104 µM | 171 µM | – |
| CCCCNc1ncc(-c2ccc([N+](=O)[O-])cc2)[nH]1 [Compound 93] | – | – | > 800 µM | 702 µM | – |
| CC(C)CNc1ncc(-c2ccc([N+](=O)[O-])cc2)[nH]1 [Compound 94] | – | – | 22.9 µM | 3.8 µM | – |
| CCCCCCCCNc1ncc(-c2ccc([N+](=O)[O-])cc2)[nH]1 [Compound 95] | – | – | ~25 µM | 10.9 µM | – |
| Nc1ncc(-c2ccc(F)cc2)[nH]1 [Compound 96] | – | – | 15 µM | 84.4 µM | – |
